# Experimental data: patent US20050191348A1 (priority 2004, published 2005)
# Marks after values point to notes of the source that are not given here.
# Tests used:
# PKC = PKC phosphorylation in PC12 cell lysates, Western blot with p-PKC (pan) antibody; assay type: cell-based, rat; details: PC12, pre-treatment 2.5 μM
# Protocol: (iv) Immunoblot Analyses. For Western blot analyses, attached cells were washed once in cold PBS and then lysed in 1× nonreducing Laemmli buffer followed by boiling for 3-5 min. Protein content was determined using the Bradford method. Equal amounts of protein were separated by SDS-polyacrylamide gel electrophoresis and blotted onto polyvinylidene difluoride (PVDF) membranes (Millipore). Membranes were treated with blocking buffer (5% dry milk in PBS or 5% dry milk, 0.05% Tween 20 (Sigma) in TBS). Primary antibodies were diluted in PBS or in TBS containing 5% BSA, 0.05% Tween 20 and incubated with membranes for 20 h at 4° C., followed by incubation (1 h at room temperature) in dilutions of horseradish peroxidase (HRP)-conjugated secondary antibodies in the same buffers. Following antibody incubations, membranes were washed in 0.5% Tween 20 in PBS or TBS. Detection was achieved using ECL™ Western Blotting Detection Reagent (Amersham, Pharmacia, Little Chalfort Buckinghamshire, UK). Quantification of results was accomplished by measuring the optical density of the labeled bands from the autoradiograms by scanning laser densitometry using the computerized imaging program Bio-ID (Imager, Bio1D software; Vilber Lourmat, Marne La Vallee, France). The values were normalized to β-actin intensity levels.
# Since activation of PKC has been shown previously to modulate cell viability, resulting in protection of neuronal cells, it was of interest to investigate the effects of rasagiline on PKC activation. In one experiment, PC12 cells were untreated or treated with various concentrations of rasagiline (0.1, 1 and 10 μM) for 1 hour. […] Phosphorylation of PKC was analyzed in cell lysates by Western blotting and detected with p-PKC (pan) antibody.
# The effect of propargylamine on PKC phosphorylation/activation was investigated as described in Example 2 above.
# MAPK = MAPK activation (phospho-p44/42 MAPK immunoblot) in PC12 cells; assay type: cell-based, rat; details: PC12, preincubation 2.5 μM, rasagiline 10 μM 0.5 h
# Protocol: (viii) Extracellular signal-regulated kinase (ERK) activity. The kinase activity of the ERKs was measured using the MAPK assay kit (Cell Signaling Technology) according to the manufacturer's protocol. In brief, for kinase activity assays, PC12 cells were grown in 6-well plates (5×10^5 cells/well). Eighteen to twenty-four hours before experiments, the medium was replaced with DMEM with 0.5% FCS and treated as described in the figures. Experimental treatments were performed in 1 ml medium containing 0.5% FCS, with the vehicle or test drugs and/or inhibitors at 37° C., as described in the figures. After treatment, reactions were stopped by placing cells on ice and aspirating the medium. Cells were harvested in 50 mM Tris-HCl, pH 8.0, 150 mM NaCl, 5 mM EDTA, 1 mM DTT, 1% Triton X-100, and protease- and phosphatase-inhibitor cocktails. Protein concentration was determined by the Bradford method. As described previously (Yogev-Falach et al., 2002), each cell lysate, containing 30 μg protein, was separated on 4-12% SDS-polyacrylamide electrophoresis gels, immunoblotted, and identified using phospho-p44/42 MAPK (Thr202/Tyr204) antibody or p44/42 MAPK antibody. Data are representative of three to six independent experiments.
# To study the effect of rasagiline on MAPK activation, PC12 cells were treated for 0.5 h with increasing concentrations of rasagiline (0.1, 1 and 10 μM), and quantification of the phospho-MAPK blots were normalized using the total MAPK blots, or PC12 cells were preincubated for 15 min with vehicle alone, or with PD98059 (30 μM) or GF109203X (2.5 μM) and then incubated without or with rasagiline (10 μM) for 0.5 h. Aliquots of cell lysates were then subjected to immunoblot analysis and probed with anti-phospho-MAPK (top blots) and anti-MAPK (bottom blots).
# For the effect of propargylamine on MAPK activation, PC12 cells were treated for 0.5 h with increasing concentrations of propargylamine (0.1, 1 and 10 μM). Aliquots of cell lysates were then subjected to immunoblot analysis and probed with anti-phospho-MAPK and anti-MAP kinase. Quantification of the phospho-MAPK were normalized using the total MAPK blots.
# caspase-3, BAD = experiment: Serum free-induced caspase-3 cleavage and BAD levels (rasagiline, data not shown); assay type: cell-based
# PC12 cells [1] = experiment: Cell death under serum deprivation (apoptotic cell death detection ELISA), PC12; assay type: cell-based, rat; details: PC12, 24 h serum deprivation, significant at 1 and 10 μM
# Protocol: Two different neuronal cell lines were used: the rat PC12 and the human neuroblastoma SH-SY5Y cells.
# PC12 cells, originated from rat pheochromocytoma, were grown to confluence in T75 flasks containing DMEM (1000 mg/l glucose) and supplemented with 5% FCS, 10% horse serum, and a mixture of 1% of penicillin/streptomycin/nystatin.
# Cell cultures were incubated at 37° C. in a humid 5% CO2-95% air environment. For cell viability assays, cells were treated with various drugs in serum free media containing 0.1% BSA.
# In order to test cell viability, PC12 cells and SH-SY5Y neuroblastoma cels were incubated under serum deprivation and were untreated or treated with rasagiline (0.1. 1 or 10 μM) for 24 hours.
# sAPPα = sAPPα release into medium of SH-SY5Y neuroblastoma cells; assay type: cell-based, human; details: 1 μM, 3 h, SH-SY5Y conditioned media, mean ± SE of three experiments
# Protocol: For the experiments, cells were seeded (2×10^6) onto 100-mm plates (for SH-SY5Y cells) or T75 flasks (for PC12 cells) in culture medium supplemented with full serum for 48 h. The cells were replaced with fresh medium containing 0.5% FCS for an additional 24 h (subconfluent culture), and then the experiments were performed in fresh medium containing 0.5% FCS for the indicated time periods at 37° C. After incubation with various drugs, the conditioned media were collected, centrifuged at 3500 g (10 min, 4° C.) to remove cell debris, and the cleared supernatants were concentrated 10-fold by lyophilization.
# (vii) Determination of sAPP. Protein concentrations of cell lysates were assayed using Bradford reagent (Sigma Chemical). Equal amounts of volumes of conditioned medium, standardized to lysate protein, were subjected to […], using either the MAbs 22C11 or 6E10 in 50 mM Tris-HCl, pH 7.4, 150 mM NaCl, containing 0.05% Tween 20 and 1% BSA. Immunoreactivity was detected using anti-mouse IgG-conjugated with HRP and an enhanced chemiluminescence method (Amersham, Pharmacia Biotech, UK). Blots were developed for different times to span a linear range of response, and the relative intensity of immunoreactive bands on the exposed films was quantified by computer-assisted densitometry program (Quantity One, Bio-Rad, Hercules, Calif., USA).
# It was of interest to determine whether rasagiline and other propargylamine-containing drugs also regulate APP processing. For this purpose, SH-SY5Y neuroblastoma cells were incubated for 3 h without or with 1 μM of various drugs (TV3326 and its S-isomer TV3279, rasagiline and its S-isomer TVP1022, selegiline, aminoindan), and sAPPα was measured in the media as described in Materials and Methods.
# We further characterized, in detail, the effect of rasagiline on APP processing and the signaling pathways that are involved. Thus, SH-SY5Y neuroblastoma cells were incubated for 3 h without or with increasing concentrations of rasagiline (0.1, 1 and 10 μM), and sAPPα was measured in the media as described in Materials and Methods.
# For the sAPPα release, SH-SY5Y neuroblastoma cells or PC12 cells were incubated for 3 h without or with increasing concentrations of propargylamine (0.1, 1 and 10 μM), and sAPPα was measured in the media as described in Materials and Methods.
# PC12 cells [2] = details: PC12, Aβ1-42 10 μM 24 h
# MAO = details: Youdim et al., 2001b; cited from earlier work
Compound,effect on propargylamine-induced PKC phosphorylation (PKC; propargylamine 1 μM 1 h),effect on rasagiline-induced PKC phosphorylation (PKC; rasagiline 1 μM 1 h),effect on rasagiline-induced MAPK activation (MAPK),"effect on rasagiline-induced decrease of BAD (caspase-3, BAD)","effect on rasagiline suppression of caspase-3 cleavage (caspase-3, BAD; data not shown)",cell death induced by serum deprivation (PC12 cells [1]),sAPPα secretion (fold/basal) (sAPPα),protection against Aβ1-42 neurotoxicity (PC12 cells [2]),fold weaker as an inhibitor of MAO than rasagiline (MAO)
CN(C)CCCn1cc(C2=C(c3c[nH]c4ccccc34)C(=O)NC2=O)c2ccccc21 [GF109203X],blocked the effect of propargylamine on PKC phosphorylation,significantly reduced rasagiline-induced PKC phosphorylation,abolished the effect of rasagiline on MAPK activation,blocked,reversed,–,–,–,–
C#CCN[C@@H]1CCc2ccccc21 [TVP1022],–,–,–,–,–,protected serum deprived PC12 cells from apoptosis,2.43 ± 0.27^c fold/basal,protected PC12 cells from Aβ-evoked apoptosis,at least 1000 fold
